From ChEMBL document CHEMBL5244269, “Improving metabolic stability and removing aldehyde oxidase liability in a 5-azaquinazoline series of IRAK4 inhibitors” (Bioorg Med Chem, 2020) come the findings set out here.

The nature of data set [1]: Metabolic stability in mouse hepatocytes assessed as intrinsic clearance measured per 10^6 cells. The data set is classed as ADME, cell-based, Hepatocyte. The note with it: read-out: CLH.
The nature of data set [2]: Metabolic stability in minipig hepatocytes assessed as intrinsic clearance measured per 10^6 cells. The data set is classed as ADME, cell-based, Sus scrofa domesticus, Hepatocyte. The note with it: pig, read-out: CLH.
The nature of data set [3]: Metabolic stability in dog hepatocytes assessed as intrinsic clearance measured per 10^6 cells. The data set is classed as ADME, cell-based, Canis lupus familiaris, Hepatocyte. The note with it: read-out: CLH.
Data set [4] is described as follows: Oral bioavailability in Han Wistar rat at 2 mg/kg. The note with it: in vivo. The data set is classed as ADME, organism-based.
The nature of data set [5]: Terminal half life in cynomolgus monkey at 1 mg/kg, iv. The data set is classed as ADME, organism-based, Macaca fascicularis. The note with it: in vivo, read-out: beta t1/2 (converted).
Data set [6] in a line: Metabolic stability in minipig liver microsomes assessed as intrinsic clearance. It counts as ADME, Sus scrofa domesticus, Microsome. The note with it: pig, read-out: CLH.
Data set [7] concerns the target T1, Interleukin-1 receptor-associated kinase 4 (Homo sapiens) (UniProt Q9NWZ3).
T1 sequence (whole entry): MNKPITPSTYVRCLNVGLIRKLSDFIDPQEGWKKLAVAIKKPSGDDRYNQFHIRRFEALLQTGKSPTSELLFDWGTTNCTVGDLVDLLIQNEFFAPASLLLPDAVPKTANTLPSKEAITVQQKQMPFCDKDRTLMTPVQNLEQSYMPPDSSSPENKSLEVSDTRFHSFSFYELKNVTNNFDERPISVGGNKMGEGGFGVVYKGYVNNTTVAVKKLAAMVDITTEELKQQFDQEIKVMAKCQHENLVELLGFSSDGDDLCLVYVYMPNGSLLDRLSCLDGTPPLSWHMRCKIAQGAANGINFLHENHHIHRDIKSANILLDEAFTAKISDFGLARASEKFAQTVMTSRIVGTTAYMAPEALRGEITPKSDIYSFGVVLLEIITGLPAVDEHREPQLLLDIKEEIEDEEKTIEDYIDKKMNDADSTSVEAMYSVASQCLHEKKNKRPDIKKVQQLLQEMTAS
As to the kind of experiment: Inhibition of IRAK4 (unknown origin) at 0.1 uM relative to control.

The nature of data set [8]: Metabolic stability in monkey liver microsomes assessed as intrinsic clearance. The data set is classed as ADME, Macaca mulatta, Microsome. The note with it: rhesus monkey, read-out: CLH.
Data set [9] is described as follows: Volume of distribution at steady state in Han Wistar rat at 2 mg/kg, po or 1 mg/kg, iv. The data set is classed as ADME, organism-based. The note with it: in vivo.
Data set [10] in a line: Metabolic stability in dog liver microsomes assessed as intrinsic clearance. The data set is classed as ADME, Canis lupus familiaris, Microsome. The note with it: read-out: CLH. (In general: Liver microsomes are a subcellular fraction often used to study metabolism.)
A short description of data set [11]: Plasma protein binding in rat assessed as free fraction by equilibrium dialysis analysis. It counts as ADME, cell-free.
Data set [12] is described as follows: Metabolic stability in human cytosol assessed as intrinsic clearance. The data set is classed as ADME, subcellular.
The nature of data set [13]: Metabolic stability in monkey hepatocytes assessed as intrinsic clearance measured per 10^6 cells. It counts as ADME, cell-based, Macaca mulatta, Hepatocyte. The note with it: rhesus monkey, read-out: CLH.
The nature of data set [14]: Volume of distribution at steady state in cynomolgus monkey at 1 mg/kg, iv. The note with it: in vivo, read-out: Vdss. The data set is classed as ADME, organism-based, Macaca fascicularis.
The target in data set [15] is T2, Phosphatidylinositol 4,5-bisphosphate 3-kinase catalytic subunit delta isoform (Homo sapiens) (UniProt O00329).
T2 sequence (whole entry): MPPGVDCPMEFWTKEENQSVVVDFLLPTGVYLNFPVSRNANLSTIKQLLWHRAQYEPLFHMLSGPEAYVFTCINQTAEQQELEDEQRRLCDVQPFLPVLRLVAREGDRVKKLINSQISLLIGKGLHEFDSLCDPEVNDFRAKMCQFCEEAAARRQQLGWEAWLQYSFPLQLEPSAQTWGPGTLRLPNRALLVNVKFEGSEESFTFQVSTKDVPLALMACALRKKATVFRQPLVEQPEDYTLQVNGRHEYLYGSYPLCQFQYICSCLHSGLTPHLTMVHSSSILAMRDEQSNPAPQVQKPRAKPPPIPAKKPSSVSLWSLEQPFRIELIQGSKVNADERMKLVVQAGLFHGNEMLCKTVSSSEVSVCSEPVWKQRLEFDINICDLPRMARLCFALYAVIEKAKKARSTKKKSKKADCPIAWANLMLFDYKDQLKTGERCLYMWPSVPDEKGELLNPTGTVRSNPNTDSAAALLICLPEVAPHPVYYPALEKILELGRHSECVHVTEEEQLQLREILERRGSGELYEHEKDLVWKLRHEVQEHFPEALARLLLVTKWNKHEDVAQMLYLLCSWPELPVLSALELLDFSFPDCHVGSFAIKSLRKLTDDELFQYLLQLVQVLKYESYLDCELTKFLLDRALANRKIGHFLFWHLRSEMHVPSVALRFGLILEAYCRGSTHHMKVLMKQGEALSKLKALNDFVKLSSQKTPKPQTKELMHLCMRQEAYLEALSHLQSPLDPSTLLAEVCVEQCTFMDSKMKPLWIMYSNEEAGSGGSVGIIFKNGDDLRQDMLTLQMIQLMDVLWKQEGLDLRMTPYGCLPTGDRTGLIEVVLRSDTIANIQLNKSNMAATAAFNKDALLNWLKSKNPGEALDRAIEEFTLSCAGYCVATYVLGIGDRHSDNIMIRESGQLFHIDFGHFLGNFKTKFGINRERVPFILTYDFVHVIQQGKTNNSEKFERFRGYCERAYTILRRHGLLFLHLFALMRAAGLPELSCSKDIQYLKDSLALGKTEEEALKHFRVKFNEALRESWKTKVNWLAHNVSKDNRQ
As to the kind of experiment: Inhibition of PI3Kdelta (unknown origin) at 0.1 uM relative to control.

A short description of data set [16]: Clearance in cynomolgus monkey at 1 mg/kg, iv. It counts as ADME, organism-based, Macaca fascicularis. The note with it: in vivo.
Data set [17] is described as follows: Plasma protein binding in monkey assessed as free fraction by equilibrium dialysis analysis. The note with it: rhesus monkey. It counts as ADME, cell-free, Macaca mulatta. In general terms: In equilibrium dialysis only unbound substance equilibrates across the membrane.
The nature of data set [18]: Volume of distribution at steady state in CD1 mouse at 1 mg/kg, po or 0.5 mg/kg, iv. The data set is classed as ADME, organism-based. The note with it: in vivo.
Data set [19] in a line: Plasma protein binding in mouse assessed as free fraction by equilibrium dialysis analysis. The data set is classed as ADME, cell-free.
Data set [20] relates to OCI-Ly10. The experiment in a line: Growth inhibition of human OCILY10 cells at 0.33 uM incubated for 3 days (reference value: -2%). The note with it: OCI-Ly10, 72 h, time 3 day, read-out: GI. The data set is classed as functional.
The test system of data set [21] is OCI-Ly10. As to the kind of experiment: Growth inhibition of human OCILY10 cells at 0.17 uM incubated for 3 days (Rvb= -2%). The data set is classed as functional. The note with it: OCI-Ly10, 72 h, time 3 day, read-out: GI.
Data set [22] deals with OCI-Ly10. As to the kind of experiment: Growth inhibition of human OCILY10 cells at 1.7 uM incubated for 3 days (reference value: -2%). The data set is classed as functional. The note with it: OCI-Ly10, 72 h, time 3 day, read-out: GI.
Data set [23] relates to OCI-Ly10. The experiment in a line: Growth inhibition of human OCILY10 cells at 3.3 uM incubated for 3 days (reference value: -2%). It counts as functional. The note with it: OCI-Ly10, 72 h, time 3 day, read-out: GI.
Data set [24] deals with OCI-Ly10. The experiment in a line: Growth inhibition of human OCILY10 cells at 10 uM incubated for 3 days (reference value: -2%). The data set is classed as functional. The note with it: OCI-Ly10, 72 h, time 3 day, read-out: GI.
For data set [25], the system named is SUD4. As to the kind of experiment: Growth inhibition of human SU-DHL-4 cells at 3.3 uM incubated for 3 days (reference value: 2%). The data set is classed as functional. The note with it: SU-DHL-4, 72 h, time 3 day, read-out: GI.
A short description of data set [26]: Oral bioavailability in mouse at 1 mg/kg. It counts as ADME, organism-based. The note with it: in vivo.
Data set [27] concerns SUD4. The experiment in a line: Growth inhibition of human SU-DHL-4 cells at 0.33 uM incubated for 3 days (reference value: 2%). It counts as functional. The note with it: SU-DHL-4, 72 h, time 3 day, read-out: GI.
The subject of data set [28] is SUD4. As to the kind of experiment: Growth inhibition of human SU-DHL-4 cells at 1.7 uM incubated for 3 days (reference value: 2%). The data set is classed as functional. The note with it: SU-DHL-4, 72 h, time 3 day, read-out: GI.
Data set [29] in a line: Oral bioavailability in rat at 1 mg/kg. The data set is classed as ADME, organism-based. The note with it: in vivo.

Regarding `Cc1ncc(-c2nc3c(OC4(C)CC4)nc(Nc4cnn(C5CCN(C)CC5)c4)nc3cc2F)cn1`, the hepatocyte CLint in [1] is 11 µL/min/1e6 cells; in data set [2], 8.2 µL/min/1e6 cells; in [3] it was 4.5 µL/min/1e6 cells; in [13], 4.7 µL/min/1e6 cells. Also, the bioavailability (in general, the share of a dose that reaches the circulation, judged against a reference dose that is usually intravenous) in [4] was 55%. In addition, the half-life in data set [5] is 84 min. The microsomal CLint in [6] was 18 µL/min/mg; in data set [8] it was 35 µL/min/mg; in data set [10], 21 µL/min/mg; in data set [12], under 0.5 µL/min/mg. The inhibition (as a rule, the change of the read-out against control, counted positive when it falls) is 102% in [7] and 61% in [15]. Further, the Vdss in data set [9] was determined as 4.3 L/kg; in data set [18], 4.1 L/kg. Also, the values for the fraction unbound in data set [11], in data set [17] and in data set [19] were 0.21, 0.33 and 0.16, respectively. In addition, the Vd in data set [14] is 8.6 L/kg. The clearance – broadly, the volume of plasma or blood freed of the substance per unit of time – in [16] came to 68 mL/min/kg.
For `CC[C@@H]1[C@H](F)C(=O)N[C@@H]1COc1nccc2cc(C(N)=O)c(OC)cc12` [ZIMLOVISERTIB], in data set [20], the inhibition of growth at 0.33 µM was determined as 5%. In addition, the inhibition of growth at 0.17 µM in data set [21] is 5%. The inhibition of growth at 1.7 µM in data set [22] was determined as 10%. Besides, the inhibition of growth at 3.3 µM in data set [23] was 20%. In [24], the inhibition of growth at 10 µM was found to be 63%.
Turning to `Cc1ncc(-c2nc3c(NC(C)C)nc(Nc4cnn(C5CC6(C5)CN(C)C6)c4)nc3cc2F)cn1`, the inhibition of growth at 3.3 µM in data set [25] worked out at 4%. Besides, the bioavailability in [26] and in data set [29] was at most 10% in each case. Also, the inhibition of growth at 0.33 µM in data set [27] turned out to be 3%. Also, in [28], the inhibition of growth at 1.7 µM stood at 3%.
